Values joined by “and” are separate entries in the source; they are usually repeats but may differ in a detail not shown here. Identical values can stand only once. Like-named read-outs stand apart in the source and are kept apart here.
What was measured:
[1] = tested on: C. glabrata strains expressing WT and mutant Bdf1; experiment: Growth inhibition in liquid media, C. glabrata lab strains; settings: for EC50: Nakaseomyces glabratus; for OD at 600 nm: Figure S4B; for pEC50 growth inhibition: Fig 2C
Method: (§1) Growth on Liquid Media with C. glabrata Lab Strains: Cells were grown at 30 °C in SC+M+C‐U medium (SC medium with 5 mM methionine, 0.25 mM cysteine, without uracil) to an OD600 of 0.5–0.8. […] Plates were incubated at 30 °C and OD600 was measured using a Multiskan FC Microplate Photometer (Thermo Fisher).

[2] = molecular target: CgBdf1 BD2 (Candida glabrata, UniProt Q6FWV7); experiment: biochemical; assay type: binding, C. glabrata; settings: Fig 2C original data, analogs of 24, single experiments Exp1-3; for IC50: read-out: pIC50 CgBD2 (converted)
[3] = molecular target: CgBdf1 BD1 (Candida glabrata, UniProt Q6FWV7); experiment: HTRF assay, inhibition of H4ac4 peptide binding; parameters: species or system C. glabrata; settings: for IC50 / pIC50 CgBD1: Fig 2C original data, analogs of 24, single experiments Exp1-3; for IC50: read-out: pIC50 CgBD1 (converted)
[4] = tested on: CgBdf1 BD1; experiment: Histone peptide array assay; settings: peptide array signal; for Raw data, WT / Normalized (0 to 100%), WT: CgBdf1 BD1 WT; for Normalized (0 to 100%), WT / Normalized (0 to 100%), YF mutant: mean of the two raw values; for Raw data, YF mutant / Normalized (0 to 100%), YF mutant: CgBdf1 BD1 YF mutant
Method: (§2) The array was prepared as described in the manufacturer's instructions. […] The array was then washed three times with binding buffer. Anti‐GST antibody (GE Healthcare) was used for the detection of GST‐tagged bromodomains.

[5] = tested on: CgBdf1 BD2; experiment: Histone peptide array assay; settings: peptide array signal; for Raw data, WT / Normalized (0 to 100%), WT: CgBdf1 BD2 WT; for Normalized (0 to 100%), WT / Normalized (0 to 100%), YF mutant: mean of the two raw values; for Raw data, YF mutant / Normalized (0 to 100%), YF mutant: CgBdf1 BD2 YF mutant
Method: as §2

[6] = tested on: C. glabrata expressing humanized Bdf1 (Brd4 BDs); experiment: Growth inhibition in liquid media, humanized C. glabrata strains; settings: Fig 3E, 50 µM, Exp 1-3
Method: as §1

[7] = read-out: pEC50 (WT BDF1), Fig 2D (converted), WT C. glabrata, single experiments Exp1-3
[8] = read-out: pEC50 growth inhibition, Fig 2C (converted), strain BD1 Y-F, single experiments Exp1-3
[9] = read-out: pEC50 growth inhibition, Fig 2C (converted), strain BD2 Y-F, single experiments Exp1-3
[10] = strain BD2 Y-F, single experiments Exp1-3

Sequence of CgBdf1 BD2 (Candida glabrata, UniProt Q6FWV7) (Q6FWV7 entry or part of it): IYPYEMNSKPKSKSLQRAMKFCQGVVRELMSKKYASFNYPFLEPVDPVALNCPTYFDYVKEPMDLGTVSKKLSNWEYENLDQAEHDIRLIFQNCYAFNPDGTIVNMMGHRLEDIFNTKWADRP
Sequence of CgBdf1 BD1 (Candida glabrata, UniProt Q6FWV7) (Q6FWV7 entry or part of it): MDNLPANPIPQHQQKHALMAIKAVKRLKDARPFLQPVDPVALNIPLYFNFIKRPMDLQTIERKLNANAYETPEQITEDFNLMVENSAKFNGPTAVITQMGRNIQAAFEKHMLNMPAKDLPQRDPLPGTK

COc1ccc(CNc2nc(-c3cccc(C)c3)nnc2C)cc1OC [Compound 24j]
EC50 [1, 7]: > 251 µM
EC50 [1, 8]: > 251 µM
EC50 [1, 9]: > 251 µM
IC50 [2]: 57 µM and 58.2 µM and 82.4 µM
IC50 [3]: 4.11 µM and 5.81 µM and 4.81 µM

Cc1ccc(-c2nnc(C)c(Cl)n2)cc1 [Compound 68]
Raw data, WT ([4]; first replicate column): 0.003466
Normalized (0 to 100%), WT [4]: 2.19%
Raw data, WT ([4]; second replicate column): 0.04033
Raw data, YF mutant ([4]; first replicate column): 0.003085
Normalized (0 to 100%), YF mutant [4]: 0.355%
Raw data, YF mutant ([4]; second replicate column): 0.00401
Raw data, WT ([5]; first replicate column): 0.004679
Normalized (0 to 100%), WT [5]: 0.624%
Raw data, WT ([5]; second replicate column): 0.007798
Raw data, YF mutant ([5]; first replicate column): 0.004601
Normalized (0 to 100%), YF mutant [5]: 0.23%
Raw data, YF mutant ([5]; second replicate column): 0

Cc1ccc(C(=N)NN)cc1 [Compound 66]
Raw data, WT ([4]; first replicate column): 0.007561
Normalized (0 to 100%), WT [4]: 2.32%
Raw data, WT ([4]; second replicate column): 0.03875
Raw data, YF mutant ([4]; first replicate column): 0.003085
Normalized (0 to 100%), YF mutant [4]: 0.308%
Raw data, YF mutant ([4]; second replicate column): 0.003085
Raw data, WT ([5]; first replicate column): 0.007798
Normalized (0 to 100%), WT [5]: 0.717%
Raw data, WT ([5]; second replicate column): 0.00655
Raw data, YF mutant ([5]; first replicate column): 0.005521
Normalized (0 to 100%), YF mutant [5]: 0.276%
Raw data, YF mutant ([5]; second replicate column): 0

CCNC(=O)C[C@@H]1N=C(c2ccc(Cl)cc2)c2cc(OC)ccc2-n2c(C)nnc21 [I-BET762]
%Growth ([1]; Fig 3E, 50 µM, WT BDF1-flag, Exp 1-3): 107% and 101%
%Growth ([6]; BDF1-hBD1-flag): 102% and 95% and 92%
%Growth ([6]; BDF1-hBD2-flag): 105% and 93% and 100%
%Growth ([6]; humanized BDF1-flag): 83%

CCNC(=O)C[C@@H]1N=C(c2ccc(Cl)cc2)c2cc(OC)ccc2-n2c(C)nnc21 [I-BET]
OD at 600 nm ([1]; WT BDF1 strain, Exp 1-3): 0.369 and 0.413 and 0.420
OD at 600 nm ([1]; bdf1-bd1Δ strain, Exp 1-3): 0.298 and 0.365 and 0.364
OD at 600 nm ([1]; bdf1-bd2Δ strain, Exp 1-3): 0.164 and 0.171 and 0.191

COc1cccc(CNc2nc(-c3ccc(C)cc3)nnc2C)c1 [Compound 24f]
pEC50 growth inhibition [1, 10]: 4.188
EC50 [1, 7]: > 251 µM
EC50 [1, 8]: > 251 µM
EC50 [1, 9]: 68.2 µM
IC50 [2]: > 100 µM
IC50 [3]: 3.66 µM and 2.81 µM and 2.3 µM

COc1ccc(CNc2nc(-c3ccc(C)cc3)nnc2C)cc1OC [Compound 24i]
EC50 [1, 7]: > 251 µM
EC50 [1, 8]: > 251 µM
EC50 [1, 9]: > 251 µM
IC50 [2]: 44.1 µM and 45 µM and 41.5 µM
IC50 [3]: 2.61 µM and 2.54 µM and 2.62 µM

Cc1cccc(-c2nnc(C)c(NCc3ccc(C)o3)n2)c1 [Compound 24d]
pEC50 growth inhibition ([1]; strain BD1 Y-F, single experiments Exp1-3): 3.797 and 3.888
pEC50 growth inhibition [1, 10]: 4.459 and 4.324
pEC50 (WT BDF1) ([1]; Fig 2D, WT C. glabrata, single experiments Exp1-3): 3.713 and 3.843
EC50 [1, 7]: 101 µM
EC50 [1, 8]: 134 µM
EC50 [1, 9]: 44.7 µM
IC50 [2]: 16.4 µM and 18.7 µM and 21.5 µM
IC50 [3]: 14.2 µM and 12.2 µM and 11.5 µM

Cc1ccc(-c2nnc(C)c(NCc3ccco3)n2)cc1 [Compound 24a]
EC50 [1, 7]: 206 µM
EC50 [1, 8]: > 251 µM
pIC50 CgBD1 [3]: 5.099 and 5.219 and 5.157
fold drop in CgBD1 inhibition ([3]; relative to 24, thiophenyl replaced by furyl or methylfuryl): 3 fold

COc1ccc(-c2nnc(C)c(NCc3ccccc3)n2)cc1 [Compound 24g]
pEC50 growth inhibition [1, 10]: 4.261 and 4.310
EC50 [1, 7]: > 251 µM
EC50 [1, 8]: > 251 µM
EC50 [1, 9]: 43.2 µM
pIC50 CgBD2 [2]: 4.269 and <4
pIC50 CgBD1 [3]: 6.145 and 5.997

From PMC11904993, “Humanized Candida and NanoBiT Assays Expedite Discovery of Bdf1 Bromodomain Inhibitors With Antifungal Potential” (Advanced Science, 2025)
